Measured values from US12054714B2, “Peptide docking vehicle for targeted nucleic acid delivery” (Sirnaomics, Inc., priority 2019, dated 2024).
{GalNAc3} = trivalent GalNAc cluster through an NHC6 amino-hexyl linker

Columns and labels:
TTR = test: Dose-response screen of GalNAc-conjugated siRNAs in primary mouse hepatocytes, bDNA read-out; assay type: cell-based; details: direct incubation 72 hours
Protocol: (§1) Dose-response screens for GalNAc-conjugated siRNAs (mTTR1-PDoV3-GalNAc3, mTTR1-PDoV2-GalNAc3, mTTR2-GalNAc3 positive control, mTTR2-GalNAc3 positive control) were performed using primary mouse hepatocytes for target TTR. The cell density was 40000 cells/96 well. The concentration was from: highest at 1 μM in 5-fold dilutions to lowest at […]. Cells were transfected by direct incubation for 72 hours. The data was read out by bDNA assay. The data was analyzed by XLfit software. TTR signal normalized to gapdh, mean of quadruplicates, mock-treated cells set=1, Xlfit for calculation of IC50 values. The primary hepatocytes used were purchased from Primacyt, Germany (lot MH181219), derived from CD 1 mice, and treated with siRNA right after thawing.
(§2) The two siRNAs were both conjugated to trivalent GalNAc clusters at the 3′ end (mTTR2 siRNA sequence was a fully modified sequence and 4 more additional PS linkages modification on the oligonucleotides than mTTR1. (Nair, et al., J. Am. Chem. Soc. 136:16958-16961(2014). Aha1-GaNAc3 positive control was used as a standard control, targeted to the housekeeper ahsa1. This was used as both negative and positive control, hybridizing the cell lysates either to the screening target or to an ahsa1-specific probe. Table e1 lists the sequences of the 2 control siRNAs and the structure of the GalNAc cluster. Table e1. Control siRNA sequence and targets. (Images discloses SEQ ID NOS 36, 47-48, 59, and 47-48, respectively, in order of appearance)

ahsa1 = test: Dose-response screen in primary mouse hepatocytes, ahsa1-specific probe (standard control); assay type: cell-based; details: 72 hours
Protocol: as §1, §2

Q: What does the source list for “mTTR2-GalNAc3 positive control: fully modified siRNA against mouse TTR conjugated to trivalent GalNAc cluster at the 3′ end (SEQ ID NO: 39/40; Nair et al.) (chain 1 AACAGUGUUCUUGCUCUAUAA; chain 2 UUAUAGAGCAAGAACACUGUUUU; chain 1: linkages s2 o18 (s phosphorothioate, o phosphodiester), 3' {GalNAc3}, sugars by position and methylation of C not given here; chain 2: linkages s2 o18 s2 (s phosphorothioate, o phosphodiester), sugars by position and methylation of C not given here; fully modified, Nf 2'-fluoro, further chemistry not fully specified)”?
A: IC80 (TTR; TTR signal normalized to gapdh): 0.3 nM; IC50 (TTR; TTR signal normalized to gapdh, Xlfit): 0.1 nM; Max. KD (TTR; highest concentration 1 μM): 96%

Q: What does the source list for “aha1-GalNAc3 positive control: standard control siRNA targeted to the housekeeper ahsa1, conjugated to trivalent GalNAc cluster at 3′ end (SEQ ID NO: 41/42) (chain 1 UCUCGUGGCCUUAAUGAAA; chain 2 UUUCAUUAAGGCCACGAGAUU; chain 1: linkages s2 o16 (s phosphorothioate, o phosphodiester), 3' {GalNAc3}, sugars by position and methylation of C not given here; chain 2: linkages s2 o16 s2 (s phosphorothioate, o phosphodiester), sugars by position and methylation of C not given here; further chemistry not fully specified)”?
A: IC50 (ahsa1): 1.5 nM; IC80 (ahsa1): 5.9 nM; Max. KD (ahsa1): 96%
